The values below come from patent publication US20210079039A1, “COMPOSITIONS AND METHODS FOR THE SELECTIVE DELIVERY OF THERAPEUTIC AND IMAGING AGENTS” (Avelas Biosciences, Inc., priority 2018, published 2021).

Numbered stars: 1 amine (or outer) side, 2 acyl side, 3 side chain; on linkers, the order of the positions; unused ones are H or OH. Square brackets hold non-standard residues; d marks the D form. Peptide text beside a SMILES is read from it. * marks the point of attachment. ξ: configuration not given here. Dolaproine(all-ξ) = COC(C(C)C(=O)[*:2])C1CCCN1[*:1]; Dolaproine = CO[C@@H]([C@@H]1CCCN1)[C@@H](C)C(=O)O; Hexanoyl(6-maleimido) = O=C1C=CC(=O)N1CCCCCC(=O)*; X1 = CC(C)[C@@H](C(=O)[*:2])N(C)C[C@@H](C)N[*:1]; Dil = CC[C@H](C)[C@H](NC)[C@@H](CC(=O)O)OC; X2 = CCC(C)C(C(CC(=O)[*:2])OC)N(C)[*:1]; X5 = CC(C)[C@@H](C(=O)*)N(C)C[C@@H](C)N; X4 = CC(C)[C@@H](C(=O)*)N(C)C[C@H](C)N; Cit = NC(=O)NCCC[CH](N)C(=O)O; NMeV = CN[CH](C(=O)O)C(C)C; ξCit = NC(=O)NCCCC(N)C(=O)O; X3 = CC(N*)C(O)c1ccccc1; Me2Gly = CN(C)CC(=O)*

The first test has as its system HT-1080 human fibrosarcoma tumor xenograft. The test is described as follows: HT-1080 human fibrosarcoma tumor xenograft therapeutic model. It is filed as in vivo, athymic nude mice. The conditions noted are these: 0.6 to 3.0 mg/kg of cytotoxic agent component, IV on days 0 and 3, tumor volume at day 9. As for the experimental part:
Female athymic nude mice (8-10 weeks old) purchased from Charles River (Wilmington, 01887, MA) were used after 4-7 day of acclimatization period. Institutional Animal Care and Use Committee (IACUC) approved protocols #EB11-002-009-1 and CP-17-09. HT-1080 human fibrosarcoma tumor cells from ATCC (CCL-121™) were grown using standard cell culture techniques. Tumor cells (1×10^8 tumor cells/mL) were suspended in DPBS/Matrigel™ (1:1 vol) and implanted subcutaneously (50 μL tumor cell suspension/mouse) into the upper mammary fat pad or right flank of mice with individual identification number (ear tag). Four to seven days later when the average tumor volume was about 50-100 mm^3, mice were randomized into different experimental groups to have similar averaged (Mean±SEM) tumor volume and dosed with (i) vehicle and (ii) different doses of test compounds. Each group typically had 4 mice. For each involved tumor-bearing mouse, the tumor volume (mm^3) was measured using a caliper and calculated as follows: tumor volume=width^2×length/2. Test compounds were administered intravenously (tail vein) twice (two administrations 3 days apart) in conscious restrained tumor-bearing mice throughout the study. Individual tumor volume, body weight as well as clinical signs were recorded during the study. Each study was terminated on day 12 post-dosing initiation. Mice were euthanized by intracardiac ketamine-xylazine overdose after recording the last individual body weight and tumor volume. For each experimental group and study day, the tumor volumes from all mice were averaged and expressed as Mean±SD. In order to directly and objectively compare anti-tumor activity of candidate SDM's, tumor volume was assessed at the same Day 9 timepoint (6 days after the cessation of test compound administration) for each experimental cohort of test compound-treated group(s) and vehicle. Graphs show tumor volume in cubic millimeters versus time. […] Compound administration is indicated by downward arrow over data point on day 0 and 3.
A general note: Xenograft models place foreign cells or tissue in a host animal.
`CC[C@H](C)[C@@H]([C@@H](CC(=O)N1CCC[C@H]1[C@H](OC)[C@@H](C)C(=O)N[C@@H](Cc1ccccc1)C(=O)OC)OC)N(C)C(=O)[C@@H](NC(=O)[C@H](C(C)C)N(C)C[C@@H](C)NC(=O)C(CCCNC(N)=O)NC(=O)[C@@H](NC(=O)CCCCCN1C(=O)C=CC1=O)C(C)C)C(C)C` (stereo partly drawn) [SDM-344] ({Hexanoyl(6-maleimido)}-V[ξCit][X1]V[Dil][Dolaproine]F-OMe): the “Efficacy (percent tumor growth inhibition versus vehicle)” value is “Medium (Medium: ≥29% inhibition to <80% inhibition)”.
Regarding `CC[C@H](C)[C@@H]([C@@H](CC(=O)N1CCC[C@H]1[C@H](OC)[C@@H](C)C(=O)N[C@@H](Cc1ccccc1)C(=O)NC)OC)N(C)C(=O)[C@@H](NC(=O)[C@H](C(C)C)N(C)C(=O)CNC(=O)[C@H](CCCNC(N)=O)NC(=O)[C@@H](NC(=O)CCCCCN1C(=O)C=CC1=O)C(C)C)C(C)C` [SDM-380] ({Hexanoyl(6-maleimido)}-V[Cit]G[NMeV]V[Dil][Dolaproine]F-NHMe), the “Efficacy (percent tumor growth inhibition versus vehicle)” value is listed as “Low (Low: <29% inhibition)”.
As to `CCC(C)C(C(CC(=O)N1CCCC1C(OC)C(C)C(=O)NC(C)C(O)c1ccccc1)OC)N(C)C(=O)C(NC(=O)C(C(C)C)N(C)C(=O)CNC(=O)C(CCCNC(N)=O)NC(=O)C(NC(=O)CCCCCN1C(=O)C=CC1=O)C(C)C)C(C)C` (stereo not drawn) [SDM-320, maleimidocaproyl-valine-citrulline-GlyMMAE] ({Hexanoyl(6-maleimido)}-V[Cit]G[NMeV]V[X2][Dolaproine(all-ξ)]-X3; configuration not given here), the “Efficacy (percent tumor growth inhibition versus vehicle)” value is “Low (Low: <29% inhibition)”.

For the next test, the system named is HT1080 Cells. The test is described as follows: Active Cellular Cytotoxic (ACC) molecules efficacy in HT1080 cells in vitro assay. Format: cell-based. The conditions noted are these: Homo sapiens, HT-1080, 96 h, four days incubation, Prestoblue, average error of 38%. The protocol:
Method: Plate cells one day prior to start of assay in 96 well black with clear bottom plates (Corning #3603), 2×10^4 cells per well in 100 μL of standard growth media (according to ATCC). Grow cells to 90% confluency.
Before start of assay rinse cells 1× with DPBS. Add compounds in a 3-fold serial dilution in triplicate (range e.g. 40 μM-18 nM), 100 μL per well in standard growth media.
Incubate four days then assay cell viability as described below. Remove media and rinse 1× with DPBS, then add 100 μL per well 10% Prestoblue Cell viability reagent (Thermo Fisher Scientific #A13261) in complete media. Return to incubator for two hours then read plate on SpectraMax M2e, bottom read excitation 555 emission 585 cut-off 570 which measures number of live cells. Cell viability was plotted versus compound concentration and data were fit to Log inhibitor vs response curve in GraphPad Prism and EC50 were determined.
Table 14 provides cellular activity data for exemplary ACCs (compound EC50 for reduction of viable cells).
Consider `CC[C@H](C)[C@@H]([C@@H](CC(=O)N1CCC[C@H]1[C@H](OC)[C@@H](C)C(=O)N[C@@H](Cc1ccccc1)C(=O)O)OC)N(C)C(=O)[C@@H](NC(=O)[C@H](C(C)C)N(C)C[C@@H](C)N)C(C)C` [ACC-10] (X5-V[Dil][Dolaproine]F-OH), for which the concentration giving a half-maximal response (EC50) (as a rule, the concentration giving half of the maximal effect) is 1020 nM.
On the same count and under the same terms, under `CC[C@H](C)[C@@H]([C@@H](CC(=O)N1CCC[C@H]1[C@H](OC)[C@@H](C)C(=O)N[C@@H](Cc1ccccc1)C(=O)O)OC)N(C)C(=O)[C@@H](NC(=O)[C@H](C(C)C)N(C)C(=O)CN)C(C)C` [ACC-5] (HELM PEPTIDE1{G.[meV].V.[CC[C@H](C)[C@@H]([C@@H](CC(=O)[*:2])OC)N(C)[*:1]].[CO[C@H]([C@@H](C)C(=O)[*:2])[C@@H]1CCCN1[*:1]].F}$$$$V2.0) stands 710 nM; under `CC[C@H](C)[C@@H]([C@@H](CC(=O)N1CCC[C@H]1[C@H](OC)[C@@H](C)C(=O)N[C@@H](Cc1ccccc1)C(=O)O)OC)N(C)C(=O)[C@@H](NC(=O)[C@H](C(C)C)N(C)C(=O)CNC)C(C)C` [ACC-4] (HELM PEPTIDE1{[Sar].[meV].V.[CC[C@H](C)[C@@H]([C@@H](CC(=O)[*:2])OC)N(C)[*:1]].[CO[C@H]([C@@H](C)C(=O)[*:2])[C@@H]1CCCN1[*:1]].F}$$$$V2.0), 4400 nM; under `CC[C@H](C)[C@@H]([C@@H](CC(=O)N1CCC[C@H]1[C@H](OC)[C@@H](C)C(=O)N[C@@H](Cc1ccccc1)C(=O)O)OC)N(C)C(=O)[C@@H](NC(=O)[C@H](C(C)C)N(C)C[C@@H](C)NC(=O)CN)C(C)C` [ACC-8] (H-G[X1]V[Dil][Dolaproine]F-OH), 910 nM.
The same measure, in the same setting: under `CC[C@H](C)[C@@H]([C@@H](CC(=O)N1CCC[C@H]1[C@H](OC)[C@@H](C)C(=O)N[C@@H](Cc1ccccc1)C(=O)O)OC)N(C)C(=O)[C@@H](NC(=O)[C@H](C(C)C)N(C)C[C@H](C)N)C(C)C` [ACC-11] (X4-V[Dil][Dolaproine]F-OH) stands 1740 nM; under `CC[C@H](C)[C@@H]([C@@H](CC(=O)N1CCC[C@H]1[C@H](OC)[C@@H](C)C(=O)N[C@@H](Cc1ccccc1)C(=O)O)OC)N(C)C(=O)[C@@H](NC(=O)[C@H](C(C)C)N(C)C(=O)CN(C)C)C(C)C` [ACC-1] (Me2Gly-[NMeV]V[Dil][Dolaproine]F-OH), 2100 nM.
